17 compounds from patent publication US10806785B2, “Immunomodulator compounds and methods of use” (Incyte Corporation, priority 2016, dated 2020) can be followed below.

Some results are limits rather than exact numbers.

For the test, the target named is PD-1/PD-L1 (Homo sapiens (Human), UniProt Q9NZQ7). Nature of the test: PD-1/PD-L1 binding assay (HTRF). The method, boiled down: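 Fc-tagged human PD-1 (25-167) and His-tagged PD-L1 (19-238), listed as […] and 10 nM final, preincubated 40 min with inhibitors in PBS pH 7.4, 0.05% Tween-20, 0.1% BSA, 1% DMSO, 25 °C. Eu anti-IgG/APC anti-His added, 60 min, 665/620 nm HTRF ratio; IC50 fitted from percent control activity.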
PD-1/PD-L1, sequence (Q9NZQ7 19-238): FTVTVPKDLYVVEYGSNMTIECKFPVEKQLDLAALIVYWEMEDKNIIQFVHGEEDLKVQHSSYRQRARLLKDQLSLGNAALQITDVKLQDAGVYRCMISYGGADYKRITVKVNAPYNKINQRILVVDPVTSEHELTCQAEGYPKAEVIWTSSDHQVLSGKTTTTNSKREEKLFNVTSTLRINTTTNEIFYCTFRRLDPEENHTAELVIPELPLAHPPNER

With `Cc1c(NC(=O)c2nc3c(n2C)CCN(C[C@@H](C)O)C3)cccc1-c1cccc(NC(=O)c2nc3c(n2C)CCN(C2CCC(C)(C(=O)O)CC2)C3)c1Cl` (mixture of isomers) [Compound 141, (R)-4-(2-((2-chloro-3′-(5-(2-hydroxypropyl)-1-methyl-4,5,6,7-tetrahydro-1H-imidazo[4,5-c]pyridine-2-carboxamido)-2′-methyl-[1,1′-biphenyl]-3-yl)carbamoyl)-1-methyl-1,4,6,7-tetrahydro-5H-imidazo[4,5-c]pyridin-5-yl)-1-methylcyclohcxane-1-carboxylic acid], the IC50 was no more than 10 nM.
In the case of `Cc1c(NC(=O)c2nc3c(n2C)CCN(C2CCCCC2)C3)cccc1-c1cccc(NC(=O)c2nc3c(n2C)CCN(C2CCC(C)(C(=O)O)CC2)C3)c1Cl` (centres unmarked) [Compound 139, 4-(2-((2-chloro-3-(5-cyclohexyl-1-methyl-4,5,6,7-tetrahydro-1H-imidazo[4,5-c]pyridine-2-carboxamido)-2′-methyl-[1,1′-biphenyl]-3-yl)carbamoyl)-1-methyl-1,4,6,7-tetrahydro-5H-imidazo[4,5-c]pyridin-5-yl)-1-methylcyclohexane-1-carboxylic acid], the IC50 is no more than 10 nM.
As for `Cc1c(NC(=O)c2nc3c(n2C)CCN(CC[C@H]2CC[C@H](C(=O)O)CC2)C3)cccc1-c1cccc(NC(=O)c2nc3c(n2C)CCN(C2CCOCC2)C3)c1Cl` [Example 109, trans-4-(2-(2-((2′-chloro-2-methyl-3′-(1-methyl-5-(tetrahydro-2H-pyran-4-yl)-4,5,6,7-tetrahydro-1H-imidazo[4,5-c]pyridine-2-carboxamido)-[1,1′-biphenyl]-3-yl)carbamoyl)-1-methyl-1,4,6,7-tetrahydro-5H-imidazo[4,5-c]pyridin-5-yl)ethyl)cyclohexane-1-carboxylic acid], the IC50 was no more than 10 nM.
Then `C[C@@H](O)CN1CCc2c(nc(C(=O)Nc3cccc(-c4cccc(NC(=O)c5nc6c(n5C)CCN(CC57CCC(C(=O)O)(CC5)C7)C6)c4Cl)c3Cl)n2C)C1` [Example 182, (R)-4-((2-(2,2′-dichloro-3′-(5-(2-hydroxypropyl)-1-methyl-4,5,6,7-tetrahydro-1H-imidazo[4,5-c]pyridine-2-carboxamido)biphenyl-3-ylcarbamoyl)-1-methyl-6,7-dihydro-1H-imidazo[4,5-c]pyridin-5(4H)-yl)methyl)bicyclo[2.2.1]heptane-1-carboxylic acid], with no more than 10 nM; and `Cn1c(C(=O)Nc2cccc(-c3cccc(-c4nc5c(o4)CN(C(=O)CN4CC(O)C4)C5)c3Cl)c2Cl)nc2c1CCN(CCC1CCC(C(=O)O)CC1)C2` (centres unmarked) [Compound 170, 4-(2-(2-(2,2′-dichloro-3′-(5-(2-(3-hydroxyazetidin-1-yl)acetyl)-5,6-dihydro-4H-pyrrolo[3,4-d]oxazol-2-yl)biphenyl-3-ylcarbamoyl)-1-methyl-6,7-dihydro-1H-imidazo[4,5-c]pyridin-5(4H)-yl)ethyl)cyclohexane-1-carboxylic acid], with no more than 10 nM; and `CN1CCc2c(nc(C(=O)Nc3cccc(-c4cccc(NC(=O)c5nc6c(n5C)CCN(C[C@H]5CC[C@@H](C(=O)O)CC5)C6)c4Cl)c3Cl)n2C)C1` [Example 69, cis-4-((2-((2,2′-dichloro-3′-(1,5-dimethyl-4,5,6,7-tetrahydro-1H-imidazo[4,5-c]pyridine-2-carboxamido)-[1,1′-biphenyl]-3-yl)carbamoyl)-1-methyl-1,4,6,7-tetrahydro-5H-imidazo[4,5-c]pyridin-5-yl)methyl)cyclohexane-1-carboxylic acid], with no more than 10 nM.
As to `CC(C)N1CCc2c(nc(C(=O)Nc3cccc(-c4cccc(NC(=O)c5nc6c(n5C)CCN(CC[C@H]5CC[C@H](C(=O)O)CC5)C6)c4Cl)c3Cl)n2C)C1` [Example 88, trans-4-(2-(2-((2,2′-dichloro-3′-(5-isopropyl-1-methyl-4,5,6,7-tetrahydro-1H-imidazo[4,5-c]pyridine-2-carboxamido)-[1,1′-biphenyl]-3-yl)carbamoyl)-1-methyl-1,4,6,7-tetrahydro-5H-imidazo[4,5-c]pyridin-5-yl)ethyl)cyclohexane-1-carboxylic acid], the 50% inhibitory concentration (IC50) was no more than 10 nM.
As for `Cn1c(C(=O)Nc2cccc(-c3cccc(NC(=O)c4nc5c(n4C)CCN(C4CCOCC4)C5)c3Cl)c2Cl)nc2c1CCN(C[C@H]1CC[C@H](C(=O)O)CC1)C2` [Example 64, trans-4-((2-(2,2′-dichloro-3′-(1-methyl-5-(tetrahydro-2H-pyran-4-yl)-4,5,6,7-tetrahydro-1H-imidazo[4,5-c]pyridine-2-carboxamido)biphenyl-3-ylcarbamoyl)-1-methyl-6,7-dihydro-1H-imidazo[4,5-c]pyridin-5(4H)-yl)methyl)cyclohexane-1-carboxylic acid], the IC50 is no more than 10 nM.
Take `Cc1c(NC(=O)c2nc3c(n2C)CCN(C)C3)cccc1-c1cccc(NC(=O)c2nc3c(n2C)CCN(C[C@H]2CC[C@H](C(=O)O)CC2)C3)c1Cl` [Example 116, trans-4-((2-((2-chloro-3′-(1,5-dimethyl-4,5,6,7-tetrahydro-1H-imidazo[4,5-c]pyridine-2-carboxamido)-2′-methyl-[1,1′-biphenyl]-3-yl)carbamoyl)-1-methyl-1,4,6,7-tetrahydro-5H-imidazo[4,5-c]pyridin-5-yl)methyl)cyclohexane-1-carboxylic acid]: the IC50 is no more than 10 nM.
The figure for `C[C@H](O)CN1CCc2c(nc(C(=O)Nc3cccc(-c4cccc(NC(=O)c5nc6c(n5C)CCN(CC[C@H]5CC[C@H](C(=O)O)CC5)C6)c4Cl)c3Cl)n2C)C1` [Example 94, trans-4-(2-(2-((2,2′-dichloro-3′-(5-((S)-2-hydroxypropyl)-1-methyl-4,5,6,7-tetrahydro-1H-imidazo[4,5-c]pyridine-2-carboxamido)-[1,1′-biphenyl]-3-yl)carbamoyl)-1-methyl-1,4,6,7-tetrahydro-5H-imidazo[4,5-c]pyridin-5-yl)ethyl)cyclohexane-1-carboxylic acid] is no more than 10 nM; for `Cn1c(C(=O)Nc2cccc(-c3cccc(NC(=O)c4nc5c(n4C)CCN(C4CCC(O)CC4)C5)c3Cl)c2Cl)nc2c1CCN(CC13CCC(C(=O)O)(CC1)C3)C2` (single isomer, unassigned) [183 (compound 183-1), 4-((2-(2,2′-dichloro-3′-(5-(4-hydroxycyclohexyl)-1-methyl-4,5,6,7-tetrahydro-1H-imidazo[4,5-c]pyridine-2-carboxamido)biphenyl-3-ylcarbamoyl)-1-methyl-6,7-dihydro-1H-imidazo[4,5-c]pyridin-5(4H)-yl)methyl)bicyclo[2.2.1]heptane-1-carboxylic acid] it is no more than 10 nM.
The figure for `Cc1c(NC(=O)c2nc3c(n2C)CCN(C2CCC(C(=O)O)CC2)C3)cccc1-c1cccc(NC(=O)c2nc3c(n2C)CCN(C2CCOCC2)C3)c1Cl` (centres unmarked) [Example 111, 4-(2-((2′-chloro-2-methyl-3′-(1-methyl-5-(tetrahydro-2H-pyran-4-yl)-4,5,6,7-tetrahydro-1H-imidazo[4,5-c]pyridine-2-carboxamido)-[1,1′-biphenyl]-3-yl)carbamoyl)-1-methyl-1,4,6,7-tetrahydro-5H-imidazo[4,5-c]pyridin-5-yl)cyclohexane-1-carboxylic acid] is no more than 10 nM.
Compound `Cc1c(NC(=O)c2nc3c(n2C)CCN(C2CCOCC2)C3)cccc1-c1cccc(NC(=O)c2nc3c(n2C)CCN(C[C@H]2CC[C@H](C(=O)O)CC2)C3)c1Cl` [Example 123, trans-4-((2-((2-chloro-2′-methyl-3′-(1-methyl-5-(tetrahydro-2H-pyran-4-yl)-4,5,6,7-tetrahydro-1H-imidazo[4,5-c]pyridine-2-carboxamido)-[1,1′-biphenyl]-3-yl)carbamoyl)-1-methyl-1,4,6,7-tetrahydro-5H-imidazo[4,5-c]pyridin-5-yl)methyl)cyclohexane-1-carboxylic acid] registered an IC50 of no more than 10 nM.
Then `Cc1c(NC(=O)c2nc3c(n2C)CCN(C2CCC(O)CC2)C3)cccc1-c1cccc(NC(=O)c2nc3c(n2C)CCN(C[C@H]2CC[C@@H](C(=O)O)CC2)C3)c1Cl` (single isomer, unassigned) [Compound 138-1, cis-4-((2-((2-chloro-3′-(5-(4-hydroxycyclohexyl)-1-methyl-4,5,6,7-tetrahydro-1H-imidazo[4,5-c]pyridine-2-carboxamido)-2′-methyl-[1,1′-biphenyl]-3-yl)carbamoyl)-1-methyl-1,4,6,7-tetrahydro-5H-imidazo[4,5-c]pyridin-5-yl)methyl)cyclohexane-1-carboxylic acid], with no more than 10 nM; and `Cn1c(C(=O)Nc2cccc(-c3cccc(NC(=O)c4nc5c(n4C)CCN(C4CCOCC4)C5)c3Cl)c2Cl)nc2c1CCN(CC13CCC(C(=O)O)(CC1)C3)C2` [Compound 179, 4-((2-(2,2′-dichloro-3′-(1-methyl-5-(tetrahydro-2H-pyran-4-yl)-4,5,6,7-tetrahydro-1H-imidazo[4,5-c]pyridine-2-carboxamido)biphenyl-3-ylcarbamoyl)-1-methyl-6,7-dihydro-1H-imidazo[4,5-c]pyridin-5(4H)-yl)methyl)bicyclo[2.2.1]heptane-1-carboxylic acid], with 10 to 100 nM.
Regarding `CCN1CCc2c(nc(C(=O)Nc3cccc(-c4cccc(NC(=O)c5nc6c(n5C)CCN(C5CCC(C)(C(=O)O)CC5)C6)c4C)c3Cl)n2C)C1` (centres unmarked) [Example 105, 4-(2-((2′-chloro-3′-(5-ethyl-1-methyl-4,5,6,7-tetrahydro-1H-imidazo[4,5-c]pyridine-2-carboxamido)-2-methyl-[1,1′-biphenyl]-3-yl)carbamoyl)-1-methyl-1,4,6,7-tetrahydro-5H-imidazo[4,5-c]pyridin-5-yl)-1-methylcyclohexane-1-carboxylic acid], the IC50 was no more than 10 nM.
Then `Cc1c(-c2nc3c(o2)CN(C(=O)CN[C@H]2C[C@@H](O)C2)C3)cccc1-c1cccc(NC(=O)c2nc3c(n2C)CCN(C)C3)c1Cl` [Compound 165, N-(2-chloro-3′-(5-((cis-3-hydroxycyclobutyl)glycyl)-5,6-dihydro-4H-pyrrolo[3,4-d]oxazol-2-yl)-2′-methyl-[1,1′-biphenyl]-3-yl)-1,5-dimethyl-4,5,6,7-tetrahydro-1H-imidazo[4,5-c]pyridine-2-carboxamide], with no more than 10 nM.
